Data reported in PubChem BioAssay (NCI).
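96-well plates; 48 h exposure; 5 concentrations. Endpoints by linear interpolation between flanking doses. Not reached: highest tested concentration assigned. Abbreviation: GI50, concentration required for 50% inhibition of growth. The concentration for full growth arrest is given as TGI.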

Experiments:
Experiment in all cases: growth of human tumour cells (NCI), 48 h
786-0 renal = test system: 786-0 renal
HCT-116 colon = test system: HCT-116 colon
HOP-92 NSCLC = test system: HOP-92 NSCLC
K-562 leukemia = test system: K-562 leukemia
MALME-3M melanoma = test system: MALME-3M melanoma
OVCAR-3 ovarian = test system: OVCAR-3 ovarian
RPMI-8226 leukemia = test system: RPMI-8226 leukemia
SR leukemia = test system: SR leukemia
TK-10 renal = test system: TK-10 renal
U251 CNS = test system: U251 CNS

Structure (SMILES)	TGI (786-0 renal) [µM]	TGI (HCT-116 colon) [µM]	TGI (HOP-92 NSCLC) [µM]	TGI (K-562 leukemia) [µM]	TGI (MALME-3M melanoma) [µM]	TGI (OVCAR-3 ovarian) [µM]	TGI (RPMI-8226 leukemia) [µM]	TGI (SR leukemia) [µM]	TGI (TK-10 renal) [µM]	TGI (U251 CNS) [µM]	GI50 (786-0 renal) [µM]	GI50 (HCT-116 colon) [µM]	GI50 (HOP-92 NSCLC) [µM]	GI50 (K-562 leukemia) [µM]	GI50 (OVCAR-3 ovarian) [µM]	GI50 (RPMI-8226 leukemia) [µM]	GI50 (SR leukemia) [µM]	GI50 (TK-10 renal) [µM]	GI50 (U251 CNS) [µM]	GI50 (MALME-3M melanoma) [µM]
O=C(Cn1ccc(=O)[nH]c1=O)Nc1ccc(C(=O)O)c(O)c1	> 100	> 100	> 100	> 100	> 100	> 100	> 100	> 100	> 100	> 100	–	–	–	–	–	–	–	–	–	–
Cc1ccc(/C=C2\CN(C(=O)OC(C)(C)C)C/C(=C\c3ccc(C)cc3)C2=O)cc1	> 100	13.7	> 100	> 100	> 100	–	–	> 100	> 100	> 100	0.445	0.058	8.97	0.332	0.352	0.329	0.0346	> 40.7	0.489	–
CCN(CC)CCn1ccc(=O)c2cc3c(=O)ccn(CCN(CC)CC)c3c(C)c21	8.56	9.08	19.5	26.8	29.6	23.6	6.8	3.94	26.7	19.7	–	–	–	–	–	–	–	–	–	–
CC(=O)NNc1nc(C)c(C(=O)NNC(=O)C(=O)Nc2ccccc2C#N)s1	> 100	> 100	> 100	> 100	> 100	> 100	> 100	> 100	> 100	> 100	–	–	–	–	–	–	–	–	–	–
CCCCCn1c(=N)n(CC(O)COc2cccc(C)c2)c2ccccc21 (centres undefined)	23.3	17.7	14.8	10.2	6.1	21.2	5.2	5.57	22.4	4.25	7.74	3.03	2.74	2.76	8	2.09	2.02	10.2	2.11	2.39
C[C@@H](C(=O)Nc1ccc(Cl)cc1)C1CCC(c2ccnc3ccc(F)cc23)CC1 (some centres undefined)	> 100	21.6	9.15	67.4	60	63.1	13.9	12.1	81.3	> 100	4.31	3.13	2.85	5.1	11.9	2.85	2.23	6.04	20	9.83
Cc1[c-]onc1C.Cc1[c-]onc1C.[Ag].[Ag].[NH-]S(=O)(=O)c1ccc(N=Nc2cc(N=Nc3ccc(S([NH-])(=O)=O)cc3)c3c(NC(=O)C(Cl)Cl)cccc3c2OC(=O)C(Cl)Cl)cc1	16.4	18.2	18.4	32.2	21.2	15.8	27.2	42.5	18.2	18.8	8.87	5.12	7.85	3.99	7.6	9.27	9.59	10	8.45	9.07
COc1cccc(NC(=O)CC(=O)N2N=C(N(CCC#N)c3ccc(Cl)cc3)CC2c2ccccc2)c1 (centres undefined)	> 100	> 100	> 100	> 100	> 100	> 100	> 100	> 100	> 100	> 100	–	–	–	–	–	–	–	–	–	–
N#C/C(=C1\OC(=O)C(c2ccc(Br)cc2)=C1O)c1ccc(Br)cc1	27.9	32.4	30	61.7	31	28.2	43.6	55.6	36.7	26.1	–	–	–	–	–	–	–	–	–	–
CN(C(=O)C12C3C4C5C3C1(C(=O)O)C5C42)C(C)(C)C (centres undefined)	> 100	> 100	> 100	> 100	> 100	> 100	> 100	> 100	> 100	> 100	–	–	–	–	–	–	–	–	–	–
C[N+](C)(C)CC(=O)N/N=C(/Cc1nc2c3c(ccc2[nH]c1=O)C(=O)c1ccccc1C3=O)C(=O)Nc1ccc(Cl)c(Cl)c1	> 100	> 100	99.8	> 100	> 100	> 100	> 100	> 100	> 100	–	–	–	–	–	–	–	–	–	–	–
C=CCC1([C@H](C)[C@@H](OC(C)=O)c2cc(OC)c(OC)c(OC)c2)C[C@@H](OC)CCC1=O (some centres undefined)	26.7	32.3	> 100	> 100	43.1	50.5	50.3	91.7	> 100	26.7	–	–	–	–	–	–	–	–	–	–
Cc1sc(C(=O)Nc2cc(C(=O)NCCCN(C)C)n(C)c2)cc1NC(=O)CCCN1C(=O)c2cccc3cccc(c23)C1=O	> 100	> 100	> 100	> 100	> 100	> 100	> 100	> 100	> 100	> 100	> 100	> 100	> 100	> 100	> 100	> 100	> 100	> 100	> 100	26
Nc1ccn(Cc2ccc(C34CC5CC(CC(C5)C3)C4)c(O)c2)c(=O)n1	> 100	> 100	71.4	> 100	> 100	> 100	> 100	> 100	> 100	> 100	47.7	> 100	22.5	35.3	58.9	> 100	> 100	> 100	23.6	> 100
Cc1ccc2c(ccc3c[n+]4c5ccccc5ccc4n32)c1	14.8	7.51	5.47	14.4	1.59	2.63	18.8	16.7	25.1	2.12	2.56	1.85	1.54	0.584	0.459	2.72	1.47	4.11	0.361	0.316
COc1cc(Cl)cc(-c2nn(C(=O)NCCN3CCOCC3)cc2-c2ccncc2)c1	37.9	51.2	84.6	> 100	> 100	7.11	> 100	> 100	> 100	> 100	6.88	4.13	4.35	4.12	2.41	7.38	5.92	8.46	4.7	9.77
CC(C)(C)C#CC1=C(Br)C(=O)OC1	5.96	–	9.2	–	4.91	4.28	3.71	> 100	2.26	> 36.5	2.27	–	2.82	0.841	0.935	0.597	> 100	0.36	0.997	2.08
CNC(=O)c1cncc(/C=C/c2ccccc2C)c1	> 25	> 25	> 25	> 25	> 25	> 25	> 25	> 25	> 25	> 25	> 25	> 25	> 25	> 25	> 25	> 25	> 25	> 25	> 25	> 25
O=CNc1c(Cl)cc2c(c1Cl)Cc1cc([N+](=O)[O-])ccc1-2	> 77	19.7	> 100	> 100	> 100	8.87	> 100	> 63.1	> 59.5	> 76.3	20	1.02	6.73	1.38	1.34	2.59	2.61	5.63	5.87	3.85
C=CCc1c2c(c(OC)c3ccoc13)C(=O)/C(=C/c1ccccc1OC)O2	> 100	> 100	6.2	> 100	> 100	12.2	> 100	> 100	> 100	> 100	6.28	3.29	2.07	3.51	3.28	3.51	3.16	6.5	3.53	19.8
COc1c(CCC[P+](c2ccccc2)(c2ccccc2)c2ccccc2)cc2c(c1OC)OCO2	26.9	> 100	4.93	> 100	10.2	18	1.72	15	34.7	19.7	3.91	1.2	0.507	0.529	0.629	0.233	1.07	4.71	1.77	0.599
CCCCOc1ccc(NC(N)=Nc2ccc(Cl)cc2)cc1	23.2	12.4	16	11.6	8.34	22.7	> 49.5	47.6	18	21.5	–	–	–	–	–	–	–	–	–	–
C[C@H](Nc1ncnc2nc[nH]c12)c1cc2cccc(Cl)c2c(=O)n1-c1ccccc1	> 86.7	> 100	69.7	> 100	> 79.5	> 100	> 100	> 100	45.5	> 100	1.42	18.4	1.38	46.9	4.19	60.3	24.3	2.8	11.8	3.51
O=C([O-])c1ccccc1Nc1ccccn1.O=C([O-])c1ccccc1Nc1ccccn1.[Ni+2]	> 100	> 100	92.8	> 100	> 100	> 100	> 100	> 100	–	> 100	> 100	> 100	37.1	49.5	> 100	> 100	> 100	–	> 100	> 100
ClCCn1c(CCl)nc2ccc(Cl)cc21	2.94	0.731	2.63	1.03	1.89	3.45	3.87	4.32	2.95	2.7	1.32	0.272	0.938	0.34	1.87	1.42	0.232	1.46	1.16	0.46
COC(=O)[C@]12CC[C@@H](C)[C@H](C)[C@@H]1C1=CC[C@@H]3[C@@]4(C)C[C@@H](OC(C)=O)[C@H](O)[C@@](C)(COC(C)=O)[C@@H]4[C@H](O)C[C@@]3(C)[C@]1(C)CC2	4.84	4.11	5.68	6.06	6.25	7.24	8.06	4.31	8.97	4.01	1.89	1.95	1.53	2.33	2.74	2.4	1.72	2.68	1.87	2.36
CNC(=O)OCc1nc(SC2CCCCO2)n(C)c1COC(=O)NC (centres undefined)	> 100	> 100	> 100	> 100	> 100	> 100	> 100	> 100	–	> 100	–	–	–	–	–	–	–	–	–	–
Nc1cc2cccc[n+]2c2cc(Cl)ccc12	–	–	69.6	22	11.7	–	29.9	16.2	–	25.4	8.16	30.2	22.7	3.01	–	2.86	2.33	59.7	4.56	2.38
CCCCCCCCCCCCOC(=S)NCCCC	67.7	35	46.9	41.3	64	–	34.2	42.7	> 100	37.2	–	–	–	–	–	–	–	–	–	–
